In ChEMBL document CHEMBL1124638, “2,4-Diamino-5-benzylpyrimidines and analogues as antibacterial agents. 10. 2,4-Diamino-5-(6-quinolylmethyl)- and -[(tetrahydro-6-quinolyl)methyl]pyrimidine derivatives. Further specificity studies” (J Med Chem, 1989) one finds MIC, IC50 and pKa data, which are given here for seven compounds.

The test system of one data set is Proteus mirabilis. The data set is described as follows: Comparative in vitro antibacterial activity with trimethoprim against Proteus mirabilis S2409. Type of data set: functional.
The test system of another data set is Shigella flexneri. The data set is described as follows: Comparative in vitro antibacterial activity with trimethoprim against Shigella flexneri CN6007. The format is functional.
For data set [1], the target named is T1, Dihydrofolate reductase (Rattus norvegicus, UniProt Q920D2).
T1 sequence (Q920D2 whole entry): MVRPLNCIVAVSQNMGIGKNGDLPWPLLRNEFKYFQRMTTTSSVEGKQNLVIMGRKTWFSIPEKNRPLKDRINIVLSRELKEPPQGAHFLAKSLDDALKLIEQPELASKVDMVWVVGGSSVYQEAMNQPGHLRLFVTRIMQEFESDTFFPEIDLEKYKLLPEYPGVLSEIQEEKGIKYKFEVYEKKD
Kind of data set: Inhibitory activity against dihydrofolate reductase in rat liver. As to conditions: read-out: I50.

Data set [2] has as its system Bordetella bronchiseptica. Kind of data set: Comparative in vitro antibacterial activity with trimethoprim against Bordetella bronchiseptica CN385. Type of data set: functional.
In another data set the test system is Proteus vulgaris. Kind of data set: Comparative in vitro antibacterial activity with trimethoprim against Proteus vulgaris CN329. The format is functional.
Data set [3] relates to Mycolicibacterium smegmatis. The data set is described as follows: Comparative in vitro antibacterial activity with trimethoprim against Mycobacterium smegmatis S 3254. The format is functional.
The test system of the next data set is Serratia marcescens. Kind of data set: Comparative in vitro antibacterial activity with trimethoprim against Serratia marcescens CN2398. Type of data set: functional.
The next data set relates to Streptococcus agalactiae. Kind of data set: Comparative in vitro antibacterial activity with trimethoprim against Streptococcus agalactiae CN1143. The format is functional.
The next data set concerns Enterococcus faecalis. Kind of data set: Comparative in vitro antibacterial activity with trimethoprim against Streptococcus faecalis CN478. Type of data set: functional.
The subject of the next data set is Vibrio cholerae. Kind of data set: Comparative in vitro antibacterial activity with trimethoprim against Vibrio cholerae ATCC 14035. Type of data set: functional.
The subject of data set [4] is Citrobacter freundii. The data set is described as follows: Comparative in vitro antibacterial activity with trimethoprim against Citrobacter freundii 2200/77. Type of data set: functional.
The subject of a further data set is Staphylococcus aureus. The data set is described as follows: Comparative in vitro antibacterial activity with trimethoprim against Staphylococcus aureus CN491. Type of data set: functional.
In another data set the test system is Salmonella typhimurium. The data set is described as follows: Comparative in vitro antibacterial activity with trimethoprim against Salmonella Typhimurium S 8587. Type of data set: functional, Salmonella enterica subsp. enterica serovar Typhimurium. As to conditions: Salmonella enterica.
In another data set the test system is Streptococcus pyogenes. The data set is described as follows: Comparative in vitro antibacterial activity of compound with trimethoprim against Streptococcus pyogenes CN10. The format is functional.
A short description of data set [5]: Comparative in vitro antibacterial activity with trimethoprim against Salmonella typhi CN512. Type of data set: functional, salmonella typhosa.
In the next data set the test system is Escherichia coli. The data set is described as follows: Comparative in vitro antibacterial activity with trimethoprim against Escherichia coli CN314. The format is functional.
Another data set has as its system Pasteurella multocida. The data set is described as follows: Comparative in vitro antibacterial activity with trimethoprim against Pasteurella multocida ATCC 6587. The format is functional.
The target in data set [6] is Dihydrofolate reductase (Neisseria gonorrhoeae, UniProt P04174). Kind of data set: Inhibitory activity against Dihydrofolate reductase in Neisseria gonorrhoeae. As to conditions: read-out: I50.
Another data set concerns Klebsiella aerogenes. The data set is described as follows: Comparative in vitro antibacterial activity with trimethoprim against Enterobacter aerogenes 2200/86. The format is functional.
Data set [7] deals with Klebsiella pneumoniae. Kind of data set: Comparative in vitro antibacterial activity with trimethoprim against Klebsiella pneumoniae CN3632. The format is functional.
Data set [8] can be described thus: Dissociation constant at 20 degree C. Type of data set: physicochemical.
Data set [9] has as its system Klebsiella pneumoniae. The data set is described as follows: Comparative in vitro antibacterial activity of compound with trimethoprim against Klebsiella pneumoniae CN3632. Type of data set: functional.
Data set [10] deals with Citrobacter freundii. Kind of data set: Comparative in vitro antibacterial activity of compound with trimethoprim against Citrobacter freundii 2200/77. Type of data set: functional.

In brackets after ≈: the same amount, converted by molar mass. A value given as a limit tells only on which side of the number the result lay.

Dihydrofolate reductase (Neisseria gonorrhoeae, UniProt P04174), sequence (P04174 whole entry): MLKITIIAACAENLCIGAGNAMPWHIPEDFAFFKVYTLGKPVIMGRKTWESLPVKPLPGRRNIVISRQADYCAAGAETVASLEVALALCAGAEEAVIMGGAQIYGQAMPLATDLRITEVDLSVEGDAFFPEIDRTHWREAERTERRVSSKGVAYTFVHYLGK

In general, MIC refers to the lowest concentration found to suppress growth. A low value points to greater potency. On to `COc1cc(Cc2cnc(N)nc2N)cc2c1NCC(CO)C2` (stereo unspecified), for which the MIC in the data set with Proteus mirabilis was more than 30 µg/mL; in the data set with Shigella flexneri, 30 µg/mL (≈ 95.1 µM); in data set [2] it was 30 µg/mL (≈ 95.1 µM); in the data set with Proteus vulgaris, 100 µg/mL (≈ 317 µM); in [3], 10 µg/mL (≈ 31.7 µM); in the data set with Serratia marcescens, more than 10 µg/mL. The MIC against Streptococcus agalactiae turned out to be 10 µg/mL (≈ 31.7 µM); against Enterococcus faecalis, 3 µg/mL (≈ 9.51 µM); against Vibrio cholerae, 3 µg/mL (≈ 9.51 µM); in the data set on Citrobacter freundii [4], 30 µg/mL (≈ 95.1 µM); in the data set on Staphylococcus aureus, 3 µg/mL (≈ 9.51 µM); in the data set with Salmonella typhimurium, 10 µg/mL (≈ 31.7 µM). The minimum inhibitory concentration (MIC) against Streptococcus pyogenes was found to be 10 µg/mL (≈ 31.7 µM); in data set [5], 10 µg/mL (≈ 31.7 µM); against Escherichia coli it was 10 µg/mL (≈ 31.7 µM); with Pasteurella multocida it was 30 µg/mL (≈ 95.1 µM); in the data set with Klebsiella aerogenes, 30 µg/mL (≈ 95.1 µM); against Klebsiella pneumoniae [7] it was 10 µg/mL (≈ 31.7 µM). Besides, the IC50 was 64 µM on Dihydrofolate reductase [1] and 0.41 µM at Dihydrofolate reductase [6].
With `COc1cc(Cc2cnc(N)nc2N)cc2c1NCCC2`, the MIC against Proteus mirabilis amounted to 3 µg/mL (≈ 10.5 µM); against Shigella flexneri, 10 µg/mL (≈ 35 µM); in data set [2] it was 1 µg/mL (≈ 3.5 µM); in the data set with Proteus vulgaris, 3 µg/mL (≈ 10.5 µM); in data set [3], 1 µg/mL (≈ 3.5 µM); against Serratia marcescens, 3 µg/mL (≈ 10.5 µM). The MIC came out at 3 µg/mL (≈ 10.5 µM) with Streptococcus agalactiae; 3 µg/mL (≈ 10.5 µM) in the data set on Enterococcus faecalis; 1 µg/mL (≈ 3.5 µM) against Vibrio cholerae; 10 µg/mL (≈ 35 µM) against Citrobacter freundii [4]; 3 µg/mL (≈ 10.5 µM) against Staphylococcus aureus; 3 µg/mL (≈ 10.5 µM) in the data set with Salmonella typhimurium. Also, the MIC is 3 µg/mL (≈ 10.5 µM) with Streptococcus pyogenes; 3 µg/mL (≈ 10.5 µM) in [5]; 10 µg/mL (≈ 35 µM) in the data set on Escherichia coli; 3 µg/mL (≈ 10.5 µM) against Pasteurella multocida; 3 µg/mL (≈ 10.5 µM) against Klebsiella aerogenes; 3 µg/mL (≈ 10.5 µM) in the data set on Klebsiella pneumoniae [7]. Moreover, the IC50 at Dihydrofolate reductase [1] came out at 76 µM; on Dihydrofolate reductase [6] it was 0.51 µM.
For the compound `CCc1cc(Cc2cnc(N)nc2N)cc2c1N(C)CCC2C` (stereo unspecified), the minimum inhibitory concentration (MIC) against Proteus mirabilis was found to be 3 µg/mL (≈ 9.63 µM); against Shigella flexneri, 10 µg/mL (≈ 32.1 µM); in data set [2] it was 1 µg/mL (≈ 3.21 µM); against Proteus vulgaris it was 10 µg/mL (≈ 32.1 µM); in [3], 3 µg/mL (≈ 9.63 µM); in the data set on Serratia marcescens, 3 µg/mL (≈ 9.63 µM). For the same compound, the MIC worked out at 1 µg/mL (≈ 3.21 µM) against Streptococcus agalactiae; 0.03 µg/mL (≈ 0.0963 µM) with Enterococcus faecalis; 3 µg/mL (≈ 9.63 µM) in the data set with Vibrio cholerae; 3 µg/mL (≈ 9.63 µM) against Citrobacter freundii [4]; 0.03 µg/mL (≈ 0.0963 µM) in the data set on Staphylococcus aureus; 1 µg/mL (≈ 3.21 µM) against Salmonella typhimurium. The MIC against Streptococcus pyogenes is 1 µg/mL (≈ 3.21 µM); in data set [5], 10 µg/mL (≈ 32.1 µM); with Escherichia coli, 3 µg/mL (≈ 9.63 µM); against Pasteurella multocida, 3 µg/mL (≈ 9.63 µM); with Klebsiella aerogenes, 1 µg/mL (≈ 3.21 µM); in the data set with Klebsiella pneumoniae [7], 3 µg/mL (≈ 9.63 µM). The IC50 at Dihydrofolate reductase [1] worked out at 44 µM; on Dihydrofolate reductase [6], 0.3 µM.
For the compound `COc1cc(Cc2cnc(N)nc2N)cc2c1NCC(COC(C)=O)C2` (stereo unspecified), the MIC in the data set with Proteus mirabilis was 30 µg/mL (≈ 83.9 µM); in the data set on Shigella flexneri it was 30 µg/mL (≈ 83.9 µM); in data set [2] it was 10 µg/mL (≈ 28 µM); with Proteus vulgaris, 30 µg/mL (≈ 83.9 µM); in data set [3] it was 30 µg/mL (≈ 83.9 µM); against Serratia marcescens, more than 10 µg/mL. The minimum inhibitory concentration (MIC) against Streptococcus agalactiae was determined as 10 µg/mL (≈ 28 µM); in the data set on Enterococcus faecalis it was 3 µg/mL (≈ 8.39 µM); against Vibrio cholerae it was 10 µg/mL (≈ 28 µM); in the data set with Citrobacter freundii [4] it was 30 µg/mL (≈ 83.9 µM); with Staphylococcus aureus, 10 µg/mL (≈ 28 µM); with Salmonella typhimurium it was 30 µg/mL (≈ 83.9 µM). Besides, the MIC against Streptococcus pyogenes is 3 µg/mL (≈ 8.39 µM); in [5] it was 30 µg/mL (≈ 83.9 µM); against Escherichia coli, 30 µg/mL (≈ 83.9 µM); against Pasteurella multocida, 30 µg/mL (≈ 83.9 µM); in the data set on Klebsiella aerogenes, 30 µg/mL (≈ 83.9 µM); in the data set on Klebsiella pneumoniae [7], 100 µg/mL (≈ 280 µM). Further, the IC50 on Dihydrofolate reductase [1] is 61 µM; on Dihydrofolate reductase [6] it was 0.16 µM.
Turning to `COc1cc(Cc2cnc(N)nc2N)cc2c1N(CCO)CCC2C` (stereo unspecified), the MIC against Proteus mirabilis was 10 µg/mL (≈ 29.1 µM); against Shigella flexneri, 10 µg/mL (≈ 29.1 µM); in data set [2] it was 10 µg/mL (≈ 29.1 µM); against Proteus vulgaris it was 10 µg/mL (≈ 29.1 µM); in data set [3], 3 µg/mL (≈ 8.74 µM); against Serratia marcescens, 10 µg/mL (≈ 29.1 µM). Moreover, the minimal inhibitory concentration (MIC) with Streptococcus agalactiae is 1 µg/mL (≈ 2.91 µM); in the data set with Enterococcus faecalis, 0.3 µg/mL (≈ 0.874 µM); against Vibrio cholerae it was 3 µg/mL (≈ 8.74 µM); against Citrobacter freundii [4], 3 µg/mL (≈ 8.74 µM); in the data set with Staphylococcus aureus it was 1 µg/mL (≈ 2.91 µM); in the data set on Salmonella typhimurium, 10 µg/mL (≈ 29.1 µM). Moreover, the minimal inhibitory concentration (MIC) is 3 µg/mL (≈ 8.74 µM) against Streptococcus pyogenes; 30 µg/mL (≈ 87.4 µM) in [5]; 30 µg/mL (≈ 87.4 µM) with Escherichia coli; 10 µg/mL (≈ 29.1 µM) against Pasteurella multocida; 30 µg/mL (≈ 87.4 µM) with Klebsiella aerogenes; 10 µg/mL (≈ 29.1 µM) against Klebsiella pneumoniae [7]. The IC50 came out at 142 µM on Dihydrofolate reductase [1] and 0.61 µM at Dihydrofolate reductase [6].
A word on the pKa: it is the negative logarithm of the acid dissociation constant. Read a high pKa as a weaker acid or stronger base. In the case of `COc1cccc2c1N(C)CCC2C` (stereo unspecified), in [8], the pKa is 6.51.
`COCCOc1cc(Cc2cnc(N)nc2N)cc2c1NCCC2`: the MIC in the data set on Proteus mirabilis was more than 30 µg/mL; against Shigella flexneri, 100 µg/mL (≈ 304 µM); in data set [2] it was 30 µg/mL (≈ 91.1 µM); against Proteus vulgaris, 100 µg/mL (≈ 304 µM); in data set [3] it was 3 µg/mL (≈ 9.11 µM); against Klebsiella pneumoniae [9], 100 µg/mL (≈ 304 µM). The minimal inhibitory concentration (MIC) against Serratia marcescens is more than 10 µg/mL; against Streptococcus agalactiae, 10 µg/mL (≈ 30.4 µM); with Enterococcus faecalis it was 3 µg/mL (≈ 9.11 µM); in the data set on Vibrio cholerae, 10 µg/mL (≈ 30.4 µM); in the data set on Staphylococcus aureus, 10 µg/mL (≈ 30.4 µM); with Salmonella typhimurium it was 100 µg/mL (≈ 304 µM). Besides, the minimum inhibitory concentration (MIC) in the data set on Streptococcus pyogenes is 3 µg/mL (≈ 9.11 µM); in [5], 100 µg/mL (≈ 304 µM); in the data set with Escherichia coli it was 100 µg/mL (≈ 304 µM); in the data set on Pasteurella multocida, 30 µg/mL (≈ 91.1 µM); in the data set with Klebsiella aerogenes, 100 µg/mL (≈ 304 µM); against Citrobacter freundii [10] it was 100 µg/mL (≈ 304 µM). Also, the IC50 is 170 µM on Dihydrofolate reductase [1] and 0.53 µM on Dihydrofolate reductase [6].
